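Tested at 5 concentrations; 48 h exposure; 96-well plates; endpoints linearly interpolated, else capped at highest concentration. Here, GI50 denotes the concentration required for 50% inhibition of growth.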 Activity calls are given as the source filed them. No stated cut-off is given here; in the data, active = GI50 up to about 1.1 µM and inactive = higher.
Key:
Assay in all cases: DTP human tumour cell line panel, 48 h
SN12C = tested on: SN12C
MDA-MB-231 = tested on: MDA-MB-231
HOP-62 = tested on: HOP-62
SK-MEL-5 = tested on: SK-MEL-5
OVCAR-4 = tested on: OVCAR-4
OVCAR-5 = tested on: OVCAR-5
HOP-92 = tested on: HOP-92
NCI-H23 = tested on: NCI-H23
MOLT-4 = tested on: MOLT-4
RXF 393 = tested on: RXF 393
MDA-N = tested on: MDA-N
UACC-62 = tested on: UACC-62
U-251 = tested on: U-251
HCC 2998 = tested on: HCC 2998
BT-549 = tested on: BT-549
CAKI-1 = tested on: CAKI-1
SW-620 = tested on: SW-620
OVCAR-8 = tested on: OVCAR-8
COLO 205 = tested on: COLO 205
CCRF-CEM = tested on: CCRF-CEM
IGROV-1 = tested on: IGROV-1
HL-60 = tested on: HL-60
NCI-H460 = tested on: NCI-H460
SK-MEL-2 = tested on: SK-MEL-2
SNB-19 = tested on: SNB-19
LOX IMVI = tested on: LOX IMVI
NCI/ADR-RES = tested on: NCI/ADR-RES
MCF7 = tested on: MCF7
T47D = tested on: T47D
UACC-257 = tested on: UACC-257
786-0 = tested on: 786-0
NCI-H226 = tested on: NCI-H226
K562 = tested on: K562
ACHN = tested on: ACHN
MDA-MB-435 = tested on: MDA-MB-435
EKVX = tested on: EKVX
OVCAR-3 = tested on: OVCAR-3
SK-MEL-28 = tested on: SK-MEL-28
M14 = tested on: M14
KM12 = tested on: KM12
HT-29 = tested on: HT-29
A498 = tested on: A498
Malme-3M = tested on: Malme-3M
UO-31 = tested on: UO-31
SF-268 = tested on: SF-268
SK-OV-3 = tested on: SK-OV-3
RPMI-8226 = tested on: RPMI-8226
HCT-15 = tested on: HCT-15
NCI-H522 = tested on: NCI-H522
SNB-75 = tested on: SNB-75
Hs-578T = tested on: Hs-578T
SR = tested on: SR
PC-3 = tested on: PC-3
SF-539 = tested on: SF-539
SF-295 = tested on: SF-295
TK-10 = tested on: TK-10
DU-145 = tested on: DU-145
HCT-116 = tested on: HCT-116
A549 = tested on: A549
M19-MEL = tested on: M19-MEL
KM-20L2 = tested on: KM-20L2
LXFL 529 = tested on: LXFL 529
DLD-1 = tested on: DLD-1
SNB-78 = tested on: SNB-78
DMS-114 = tested on: DMS-114

Q: What does the source list for `Cc1ccc(C(=O)/C=C2/Nc3ccccc3NC2=O)c(C)c1`?
A: GI50 (SN12C): 16 µM (inactive); GI50 (MDA-MB-231): 14.3 µM (inactive); GI50 (HOP-62): 5.62 µM (inactive); GI50 (SK-MEL-5): 19 µM (inactive); GI50 (OVCAR-4): 2.7 µM (inactive); GI50 (OVCAR-5): 44.7 µM (inactive); GI50 (HOP-92): 3.04 µM (inactive); GI50 (NCI-H23): 16.1 µM (inactive); GI50 (MOLT-4): 45.5 µM (inactive); GI50 (RXF 393): 7.52 µM (inactive); GI50 (MDA-N): 17.5 µM (inactive); GI50 (UACC-62): 5.37 µM (inactive); GI50 (U-251): 11.2 µM (inactive); GI50 (HCC 2998): 29.4 µM (inactive); GI50 (BT-549): 35.4 µM (inactive); GI50 (CAKI-1): 3.95 µM (inactive); GI50 (SW-620): 27.2 µM (inactive); GI50 (OVCAR-8): 5.28 µM (inactive); GI50 (COLO 205): 62.1 µM (inactive); GI50 (CCRF-CEM): 62.5 µM (inactive); GI50 (IGROV-1): 12.7 µM (inactive); GI50 (HL-60): 23.4 µM (inactive); GI50 (NCI-H460): 13.2 µM (inactive); GI50 (SK-MEL-2): 46.5 µM (inactive); GI50 (SNB-19): 9.71 µM (inactive); GI50 (LOX IMVI): 22.6 µM (inactive); GI50 (NCI/ADR-RES): 7.89 µM (inactive); GI50 (MCF7): 13.3 µM (inactive); GI50 (T47D): 22.1 µM (inactive); GI50 (UACC-257): 42.1 µM (inactive); GI50 (786-0): 4.19 µM (inactive); GI50 (NCI-H226): 10.8 µM (inactive); GI50 (K562): 61.5 µM (inactive); GI50 (ACHN): 8.36 µM (inactive); GI50 (MDA-MB-435): 30.8 µM (inactive); GI50 (EKVX): 8.77 µM (inactive); GI50 (OVCAR-3): 32 µM (inactive); GI50 (SK-MEL-28): 14.7 µM (inactive); GI50 (M14): 49.2 µM (inactive); GI50 (KM12): 20.8 µM (inactive); GI50 (HT-29): 23.4 µM (inactive); GI50 (A498): 0.228 µM (active); GI50 (Malme-3M): 54.6 µM (inactive); GI50 (UO-31): 8.32 µM (inactive); GI50 (SF-268): 6.95 µM (inactive); GI50 (SK-OV-3): 7.05 µM (inactive); GI50 (RPMI-8226): 25.2 µM (inactive); GI50 (HCT-15): 64.3 µM; GI50 (NCI-H522): 7.73 µM (inactive); GI50 (SNB-75): 6.32 µM (inactive); GI50 (Hs-578T): 16.2 µM (inactive); GI50 (SR): 29.4 µM (inactive); GI50 (PC-3): 18.2 µM (inactive); GI50 (SF-539): 5.04 µM (inactive); GI50 (SF-295): 9.46 µM (inactive); GI50 (TK-10): 5.58 µM (inactive); GI50 (DU-145): 30.1 µM (inactive); GI50 (HCT-116): 11.8 µM (inactive); GI50 (A549): 13.7 µM (inactive)

Q: `O=C(CC(=O)c1ccccc1)CC(O)(c1ccccc1)c1ccccc1` was tested. Which GI50 (SN12C) did it give?
A: Its GI50 is 4.99 µM (inactive).

Q: And the GI50 (M19-MEL)?
A: Its GI50 is 3.12 µM (inactive).

Q: What about the GI50 (KM-20L2) of the same compound?
A: Its GI50 is 5.25 µM (inactive).

Q: What about the GI50 (HOP-62) of the same compound?
A: Its GI50 is 3.34 µM (inactive).

Q: What about the GI50 (SK-MEL-5) of the same compound?
A: Its GI50 is 3.52 µM (inactive).

Q: And the GI50 (OVCAR-4)?
A: Its GI50 is 3.13 µM (inactive).

Q: And the GI50 (OVCAR-5)?
A: Its GI50 is 11.3 µM (inactive).

Q: What about the GI50 (HOP-92) of the same compound?
A: The GI50 was 5.21 µM (inactive).

Q: What about the GI50 (NCI-H23) of the same compound?
A: Its GI50 is 3.37 µM (inactive).

Q: And the GI50 (MOLT-4)?
A: The GI50 was 1.88 µM (inactive).

Q: What about the GI50 (LXFL 529) of the same compound?
A: Its GI50 is 3.24 µM (inactive).

Q: What about the GI50 (UACC-62) of the same compound?
A: Its GI50 is 3.21 µM (inactive).

Q: And the GI50 (U-251)?
A: Its GI50 is 3.32 µM (inactive).

Q: And the GI50 (HCC 2998)?
A: The GI50 was 10.6 µM (inactive).

Q: What about the GI50 (CAKI-1) of the same compound?
A: The GI50 was 2.9 µM (inactive).

Q: What about the GI50 (SW-620) of the same compound?
A: The GI50 was 4.02 µM (inactive).

Q: And the GI50 (OVCAR-8)?
A: Its GI50 is 5.26 µM (inactive).

Q: What about the GI50 (COLO 205) of the same compound?
A: Its GI50 is 10.5 µM (inactive).

Q: And the GI50 (CCRF-CEM)?
A: The GI50 was 3.37 µM (inactive).

Q: What about the GI50 (HL-60) of the same compound?
A: The GI50 was 2.01 µM (inactive).

Q: What about the GI50 (NCI-H460) of the same compound?
A: Its GI50 is 2.33 µM (inactive).

Q: What about the GI50 (SK-MEL-2) of the same compound?
A: The GI50 was 9.95 µM (inactive).

Q: What about the GI50 (SNB-19) of the same compound?
A: Its GI50 is 3.92 µM (inactive).

Q: And the GI50 (UACC-257)?
A: Its GI50 is 13.2 µM (inactive).

Q: What about the GI50 (NCI-H226) of the same compound?
A: Its GI50 is 3.87 µM (inactive).

Q: What about the GI50 (K562) of the same compound?
A: Its GI50 is 2.47 µM (inactive).

Q: What about the GI50 (ACHN) of the same compound?
A: The GI50 was 6.27 µM (inactive).

Q: What about the GI50 (EKVX) of the same compound?
A: The GI50 was 6.1 µM (inactive).

Q: What about the GI50 (OVCAR-3) of the same compound?
A: The GI50 was 4.84 µM (inactive).

Q: And the GI50 (SK-MEL-28)?
A: The GI50 was 13.1 µM (inactive).

Q: And the GI50 (M14)?
A: The GI50 was 3.61 µM (inactive).

Q: What about the GI50 (KM12) of the same compound?
A: Its GI50 is 7.76 µM (inactive).

Q: What about the GI50 (HT-29) of the same compound?
A: Its GI50 is 10.4 µM (inactive).

Q: What about the GI50 (A498) of the same compound?
A: Its GI50 is 12.1 µM (inactive).

Q: And the GI50 (Malme-3M)?
A: The GI50 was 11 µM (inactive).

Q: And the GI50 (UO-31)?
A: Its GI50 is 5.7 µM (inactive).

Q: And the GI50 (SF-268)?
A: Its GI50 is 6.9 µM (inactive).

Q: And the GI50 (SK-OV-3)?
A: The GI50 was 9.31 µM (inactive).

Q: What about the GI50 (DLD-1) of the same compound?
A: Its GI50 is 4.18 µM (inactive).

Q: What about the GI50 (RPMI-8226) of the same compound?
A: The GI50 was 4.05 µM (inactive).

Q: What about the GI50 (HCT-15) of the same compound?
A: Its GI50 is 4.89 µM.

Q: What about the GI50 (NCI-H522) of the same compound?
A: Its GI50 is 3.12 µM (inactive).

Q: And the GI50 (SNB-75)?
A: The GI50 was 9.55 µM (inactive).

Q: What about the GI50 (SNB-78) of the same compound?
A: The GI50 was 21 µM (inactive).

Q: And the GI50 (SR)?
A: The GI50 was 2.88 µM (inactive).

Q: And the GI50 (SF-295)?
A: Its GI50 is 4.42 µM (inactive).

Q: What about the GI50 (DMS-114) of the same compound?
A: The GI50 was 2.06 µM (inactive).

Q: What about the GI50 (TK-10) of the same compound?
A: Its GI50 is 9.82 µM (inactive).

Q: What about the GI50 (HCT-116) of the same compound?
A: Its GI50 is 4.59 µM (inactive).

Reference: ChEMBL document CHEMBL1201862, “PubChem BioAssay data set” (2004)
